According to patent publication US20090136579A1, “Nanoparticles Comprising a PDGF Receptor Tyrosine Kinase Inhibitor” (priority 2006, published 2009):
“Also recorded” adds a separate entry of the source. Read-outs that look alike come from different tables or passages of the source.

Tests used:
rabbit vein graft = assay: Rabbit vein graft failure model (vein autograft implanted into carotid artery); type: in vivo; conditions: graft treated for 30 min, Imatinib 10% w/v; 4 weeks
Text: A rabbit vein autograft is implanted into a carotid artery to prepare a rabbit vein graft failure model. In this model, a lumen stenosis due to neointimal formation develops after 4 weeks.

[1] = system: Human coronary artery arterial vascular SMCs; conditions: for inhibition of PDGF-BB induced SMC proliferation, dose dependence: free Imatinib 0.1, 1, 10 μM, PDGF-BB 10 ng/ml
Method: Human coronary artery arterial vascular SMCs (Cambrex Bio Science Walkersville, Inc) are seeded on 48-well culture plates (FALCON 354506 BIOCOAT CELL WARE Human Fibronectin) at 5×10^3 cells per well (n=6 per group) in SM-BM with 10% FBS. After 24 hours, the cells are starved for 72 hours in serum free medium to obtain quiescent non-dividing cells. After starvation, recombinant PDGF-BB (Sigma) 10 ng/m^1 is added. […] These wells are washed with PBS before PDGF stimulation. Four days later, the cells are fixed with methanol and stained with Diff-Quick staining solution (Baxter). A single observer who is blinded the experimental protocol counted the number of cells/plate under a microscope for quantification of SMC proliferation.

Rat aortic SMCs = conditions: for inhibition of PDGF-BB induced SMC migration, dose dependence: free Imatinib 0.1, 1, 10 μM, PDGF-BB 10 ng/ml
Method: Migration of rat aortic SMCs is assessed with a Boyden chamber type cell migration assay kit housing a collagen-precoated polycarbonate membrane with 8.0-μm pores (Chemicon), as we previously described (Ono H, Ichiki T, et al. Arterioscler Thromb Vasc Biol. 2004; 24:1634-9.). SMCs are grown to semiconfluent and then made quiescent in serum free medium for 24 hours before migration. The cells (1×10^5 cells/ml) are added to the upper chamber of the membrane (n=6 per group) and allowed to migrate through the pores. […] These cells are washed with PBS before PDGF stimulation. SMCs are then exposed. to PDGF-BB (10 ng/ml) in the lower chamber for 4 hours, after which non-migrated cells are removed from the upper chamber using a cotton swab. The SMCs that migrate to the lower side of the filter are fixed in methanol, stained with Diff-Quick staining solution (Baxter), and counted under a microscope for quantification of SMC migration.

[2] = listed as non-encapsulated Imatinib
[3] = free Imatinib at 0.1 μM, listed as free Imatinib

Cc1ccc(NC(=O)c2ccc(CN3CCN(C)CC3)cc2)cc1Nc1nccc(-c2cccnc2)n1 [Imatinib, N-{5-[4-(4-methylpiperazino-methyl)-benzoylamido]-2-methylphenyl}-4-(3-pyridyl)-2-pydmidine-amine]
neointimal formation of vein graft (rabbit vein graft): No suppression
inhibition of PDGF-BB induced SMC proliferation, dose dependence [1]: dose-dependently reduces
inhibition of PDGF-BB induced SMC proliferation, dose dependence ([1]; listed as free Imatinib): dose-dependent manner
inhibition of PDGF-BB induced SMC proliferation, dose dependence [1, 2]: dose-dependent manner
effect on PDGF-induced SMC proliferation ([1]; free Imatinib at 0.1 μM): no effect
effect on PDGF-induced SMC proliferation [1, 3]: no effects
effect on PDGF-induced SMC proliferation ([1]; free Imatinib at 10 μM): normalizes; also recorded: completely abolishes
inhibition of PDGF-BB induced SMC migration, dose dependence (Rat aortic SMCs): dose-dependent inhibitory effect
inhibition of PDGF-BB induced SMC migration, dose dependence (Rat aortic SMCs; listed as free Imatinib): dose-dependent manner
inhibition of PDGF-BB induced SMC migration, dose dependence (Rat aortic SMCs; [2]): dose-dependent manner
effect on PDGF-induced SMC migration (Rat aortic SMCs; free Imatinib at 0.1 μM): no effect
effect on PDGF-induced SMC migration (Rat aortic SMCs; [3]): no effects
effect on PDGF-induced SMC migration (Rat aortic SMCs; free Imatinib at 10 μM): normalizes
